Assay results taken from US20250129370A1, “METHOD FOR REDUCING HEPATIC TRIGLYCERIDES” (ADAERATA, LIMITED PARTNERSHIP, priority 2022, published 2025).
*: point of attachment. Decanoyl = CCCCCCCCCC(=O)*; CH2Cl = ClC*

Tests used:
PC7 = target: T1, PC7 (Homo sapiens, UniProt Q16549); assay: s-apoB secretion in IHH cells overexpressing PC7, with pan-proprotein convertase inhibitor; assay type: cell-based; conditions: naive IHH cells overexpressing PC7 and s-apoB
T1 construct: expressed in transfected cells; host or cells: naïve IHH cells
T1 sequence (Q16549 142-785): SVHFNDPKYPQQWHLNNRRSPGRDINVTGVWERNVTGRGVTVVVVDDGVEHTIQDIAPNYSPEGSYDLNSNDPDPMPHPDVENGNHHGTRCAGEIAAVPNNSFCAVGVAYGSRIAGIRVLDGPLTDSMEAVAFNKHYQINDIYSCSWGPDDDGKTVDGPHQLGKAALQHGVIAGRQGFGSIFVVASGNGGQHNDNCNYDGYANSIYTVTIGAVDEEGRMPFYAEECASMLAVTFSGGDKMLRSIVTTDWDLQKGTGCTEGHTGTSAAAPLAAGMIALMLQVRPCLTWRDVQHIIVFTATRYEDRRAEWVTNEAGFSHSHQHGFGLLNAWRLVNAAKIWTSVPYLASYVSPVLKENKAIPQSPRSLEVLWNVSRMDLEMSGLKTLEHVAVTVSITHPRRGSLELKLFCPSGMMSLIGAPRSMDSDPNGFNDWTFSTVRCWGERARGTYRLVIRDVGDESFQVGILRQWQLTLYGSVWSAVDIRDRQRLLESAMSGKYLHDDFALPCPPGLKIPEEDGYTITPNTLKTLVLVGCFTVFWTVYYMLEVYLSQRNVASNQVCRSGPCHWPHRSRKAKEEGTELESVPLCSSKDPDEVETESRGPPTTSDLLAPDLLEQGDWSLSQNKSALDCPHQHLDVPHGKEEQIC
Procedure: FIGS. 7A-l: PCSK7 can bind apoB in the ER and acts as a molecular chaperone-like facilitating its secretion, and its absence leads to a rapid degradation of apoB by the proteasome. […] (FIG. 7A) Western blot (presented on gel and graphically) of apoB100 and PC7 protein levels in WT and PCSK7^−/− IHH cells. Levels are normalized to α-tubulin. (FIG. 7B) Western blot (presented on gel and graphically) of apoB100 and PC7 protein levels over time (0, 15 and 30 minutes) in WT and PCSK7^−/− IHH cells incubated with cycloheximide (CHX) to block de novo mRNA translation. Levels are normalized to α-tubulin. (FIG. 7C-D) Western blot (presented on gel and graphically) of cellular apoB levels in WT and PCSK7^−/− IHH cells incubated with brefeldin A (BFA) that blocks exit from the endoplasmic reticulum (ER), an autophagy inhibitor 3-methyladenine (3MA), proteasome inhibitors MG132, Lactacystin, DMSO or non treated (NT) controls. (FIG. 7E) Western blot (presented on gel) of cellular apoB levels and polyubiquitinated apoB100 in WT and PCSK7^−/− IHH cells incubated with Lactacystin. (FIG. 7F) Schematic representation of apoB100 and apoB21 protein. […]

mice fed a HFFC diet = assay: Liver lipid droplets and histopathology in mice recovering from HFFC diet; assay type: in vivo, mouse; conditions: after 8 weeks recovery and treatment
From the text: FIGS. 39A-D (FIG. 39A) Upper panels—Oil red 0 staining of liver sections control (no treatment), and ASO-2, ASO-7 and α-tocopherol treated mice. Lower panels; Total area of LDs, mean area of LD and LD number in non treated mice or in mice treated with GalNac-ASO-7, GalNac-ASO-2 or α-tocopherol. (FIG. 39B) Liver morphology and fat accumulation measured in terms of liver inflammation, hepatocyte ballooning and steatosis grade in non treated mice or in mice treated with GalNac-ASO-7, GalNac-ASO-2 or α-tocopherol. (FIG. 39C) Extent of fibrosis measured by Sirius red staining in non treated mice or in mice treated with GalNac-ASO-7, GalNac-ASO-2 or α-tocopherol. […]
Eight ASOs against mouse Pcsk7 were tested in mouse FL38B hepatocytes and the best ones, namely ASO2 and ASO7, were modified (FIG. 37D) with covalent linkages to trivalent N-acetyl-Galactosamine (GalNac) residues (FIG. 37E). […] Mice were next injected with 5 mg/kg of either GalNac-ASO7 and GalNac-ASO-2, twice a week for 1 month, whereupon the livers and their partially purified primary hepatocytes were analyzed by RT-qPCR for the levels of Pcsk7 mRNA. […]
The reduction of LD accumulation in mice treated with GalNac-ASO-7 or GalNac-ASO-2 compared to α-tocopherol was next analyzed (FIG. 39A).

Pcsk7 mRNA = assay: Liver Pcsk7 mRNA after the recovery period following HFFC diet; assay type: in vivo, mouse; conditions: after 8 weeks recovery, 500 IU/kg of food
Procedure: The dose-dependent efficacy of these ASOs following their subcutaneous injection in mice was tested for the decrease in total liver Pcsk7 mRNA at 2, 5, 10 and 15 mg/kg, twice a week for 1 month. […] Mice were next injected with 5 mg/kg of either GalNac-ASO7 and GalNac-ASO-2, twice a week for 1 month, whereupon the livers and their partially purified primary hepatocytes were analyzed by RT-qPCR for the levels of Pcsk7 mRNA. […] A program was then set up whereby 8 weeks-old mice were fed a HFFC diet for 16 weeks, after which they were switched to a regular chow diet for another 8 weeks recovery period. The mice were divided into 3 groups of 12 mice each and treated as follows starting from the beginning of the recovery period (FIG. 38C): (1) a control non-treated group; (2) two GalNac-ASO groups subcutaneously injected twice a week for 8 weeks with either GalNac-ASO7 or GalNac-ASO2 at 5 mg/kg; (3) a group fed a chow diet containing Vitamin E (α-tocopherol) at 500 IU/kg of food.
The inventors next compared the levels of Pcsk7 mRNAs in the livers of mice after the 8 weeks recovery period that followed the 16-weeks HFFC diet.

[1] = system: Mouse FL38B hepatocyte cells; assay: Lipid droplet accumulation in oleic acid-treated mouse hepatocyte cells; assay type: cell-based
Procedure: FIGS. 37A-E: Comparison of various ASOs and vitamin E on lipid droplet accumulation in mouse FL38B hepatocytes. (FIG. 37A) Immunocytochemical analysis of mouse FL38B hepatocyte cells incubated for 48 h with oleic acid in the presence of either fluorescent mouse mASO-1, mASO-2 or mASO-7 (not shown) or α-tocopherol (vitamin E) (arrows pointing towards transfected cells, red staining indicate lipid droplets). (FIG. 37B) Quantitative analysis of results expressed in bar graph. (FIGS. 37C-D). The effect of eight ASOs on Pcsk7 mRNA levels as measured by quantitative PCR (qPCR). The experiment was repeated two independent times. *p<0.05 (FIG. 37A) The effect of mASO-1, mASO-2, mASO-7 and Vitamin E on reduction of accumulation of fluorescent triglycerides in cells as estimated by FACS measurement of lipid droplets (LD) by LipidTox™ staining. (FIG. 37E). modifications of ASO by trivalent linkage to N-acetyl-Galactosamine ([…]).
The effect of eight ASOs on Pcsk7 mRNA levels was measured by quantitative PCR (qPCR) (FIG. 37C). Mouse FL38B hepatocyte cells were incubated for 48 h with oleic acid in the presence of either fluorescent (green) mouse mASO-1, mASO-7 or α-tocopherol (vitamin E). […] (FIGS. 37B-37D). Mouse FL38B hepatocyte cells were plated on day 1, ASOs were added on day 2, the media was replaced on day 3 and RNA was extracted on day 4. […]

Row | Molecule | chaperone-like activity of PC7 on apoB (s-apoB secretion) (PC7) | reduced total area, more abundant but smaller LDs, relative to GalNac-ASO7 (mice fed a HFFC diet) | increase in Pcsk7 mRNA levels (Pcsk7 mRNA) | accumulation of lipid droplets ([1]; 48 h with oleic acid, immunocytochemistry) | accumulation of fluorescent triglycerides in cells ([1]; FACS measurement of lipid droplets by LipidTox staining)
1 | Decanoyl-RVKR-CH2Cl | did not block | – | – | – | –
2 | Cc1c(C)c2c(c(C)c1O)CC[C@@](C)(CCC[C@H](C)CCC[C@H](C)CCCC(C)C)O2 [α-tocopherol] | – | significantly less | 33% | significantly reduced | best reduction
